Assay [1] is described as follows: Antibacterial activity against multidrug-resistant Salmonella enterica serovar Virchow B94 expressing floR2. It counts as functional, Salmonella enterica subsp. enterica serovar Virchow.
A short description of assay [2]: Antibacterial activity against multidrug-resistant Salmonella enterica serovar Virchow B100 expressing floR2. In kind it is functional, Salmonella enterica subsp. enterica serovar Virchow.
Assay [3] can be described thus: Antibacterial activity against multidrug-resistant Salmonella enterica serovar Virchow B98 expressing floR2. It counts as functional, Salmonella enterica subsp. enterica serovar Virchow.
The subject of assay [4] is Salmonella typhimurium. Kind of assay: Antibacterial activity against multidrug-resistant Salmonella enterica subsp. enterica serovar Typhimurium BN9181 expressing floR. It counts as functional.

In brackets after ≈: the same amount, converted by molar mass.

Drawing on ChEMBL document CHEMBL1629595, “Truncated tni module adjacent to the complex integron of salmonella genomic island 1 in Salmonella enterica serovar Virchow” (2009), this text covers MIC for two compounds.

By MIC is commonly meant the lowest concentration that inhibits growth of the organism. The low end stands for a more susceptible organism, the high end for a less susceptible organism. `O=C(N[C@H](CO)[C@H](O)c1ccc([N+](=O)[O-])cc1)C(Cl)Cl` [CHLORAMPHENICOL]: the MIC in assay [1] is more than 256 µg/mL; in assay [2], more than 256 µg/mL; in assay [3], more than 256 µg/mL; in assay [4] it was 256 µg/mL (≈ 792 µM).
As for `CS(=O)(=O)c1ccc([C@@H](O)[C@@H](CF)NC(=O)C(Cl)Cl)cc1` [FLORFENICOL], the MIC in assay [1] was found to be 32 µg/mL (≈ 89.3 µM); in assay [2], 32 µg/mL (≈ 89.3 µM); in assay [3], 32 µg/mL (≈ 89.3 µM); in assay [4], 64 µg/mL (≈ 179 µM).
